From US11466044B2 (WAYNE STATE UNIVERSITY, priority 2017, dated 2022)
Values after ≈ are worked out from the molar mass of the structure shown. Read-outs that look alike come from different tables or passages of the source.

Key:
[1] = tested on: E coli carrying specific resistance determinants; assay: MIC by broth microdilution, E coli carrying specific resistance determinants; type: cell-based; conditions: Escherichia coli
[2] = tested on: M. abscessus; assay: MIC by broth microdilution, M. abscessus; type: cell-based; conditions: Mycobacteroides abscessus
[3] = tested on: A1555G mutant mitochondrial ribosome (human chimeric); assay: in-vitro translation assay, human chimeric ribosomes, A1555G mutant mitochondrial decoding site; type: biochemical; conditions: human mitochondrial decoding site with A1555G point mutation; read-out: IC50 Mitoch. A1555G
From the text: (§1) The antiribosomal activity of these compounds was investigated with cell-free translation assays using both wild type bacterial ribosomes and hybrid ribosomes carrying eukaryotic decoding A sites enabling the prediction of selectivity.

[4] = tested on: Acinetobacter baumannii pittii AG225; assay: MIC by broth microdilution, Acinetobacter baumannii; type: cell-based; conditions: strain AG225 Acinetobacter baumannii pittii
[5] = tested on: Klebsiella pneumonia AG215; assay: MIC by broth microdilution, Klebsiella pneumonia; type: cell-based; conditions: Klebsiella pneumoniae; strain AG215 Klebsiella pneumonia; read-out: MIC AG215 K. pneumon
[6] = tested on: MRSA; assay: MIC by broth microdilution, MRSA isolates; type: cell-based; conditions: for MIC50 / MIC: Staphylococcus aureus, MRSA
[7] = tested on: M. smegmatis SZ380; assay: MIC by broth microdilution, M. smegmatis; conditions: Mycolicibacterium smegmatis
[8] = tested on: N. gonorrhoeae; assay: Disk diffusion, N. gonorrhoeae; type: cell-based; conditions: Neisseria gonorrhoeae
[9] = tested on: wild type bacterial ribosomes; assay: in-vitro translation assay, bacterial ribosomes; type: biochemical
From the text: as §1

NC[C@@H]1O[C@H](O[C@H]2[C@@H](O)[C@H](O[C@@H]3[C@@H](O)[C@H](N)C[C@H](N)[C@H]3O[C@H]3O[C@H](CO)[C@@H](O)[C@H](O)[C@H]3N)O[C@@H]2CO)[C@H](N)[C@@H](O)[C@@H]1O [paromomycin, reference compound]
MIC ([1]; read-out: MIC AG003 E. coli AAC(3)-II): 2 to 4 µg/mL (≈ 3.25 to 6.5 µM)
MIC ([1]; read-out: MIC AG036 ANT(4′,4′′)): 32 to 64 µg/mL (≈ 52 to 104 µM)
MIC ([1]; read-out: MIC AG037 APH(3′)-III): > 128 µg/mL
MIC ([1]; read-out: MIC AG037 E. coli APH(3′)-III): > 128 µg/mL
MIC ([1]; read-out: MIC AG103 armA): 2 µg/mL (≈ 3.25 µM)
MIC ([1]; read-out: MIC AG163 E. coli APH(3′)-I): > 128 µg/mL
MIC ([1]; read-out: MIC AG166 E. coli APH(3′)-II): > 128 µg/mL
MIC ([1]; read-out: MIC ANT(4′)): 32 to 64 µg/mL (≈ 52 to 104 µM)
MIC ([1]; read-out: MIC APH(3)-VI): > 64 µg/mL
MIC ([1]; read-out: MIC APH(3′)-I): > 64 µg/mL
MIC ([1]; read-out: MIC APH(3′)-II): > 64 µg/mL
MIC ([1]; read-out: MIC APH(3′)-III): > 64 µg/mL
MIC ([1]; read-out: MIC APH(3′)-VI): > 64 µg/mL
MIC ([1]; read-out: MIC E coli AG007 ANT(3″) AAC(3)-I): 4 µg/mL (≈ 6.5 µM)
MIC ([1]; read-out: MIC E coli AG103 ArmA): 1 to 2 µg/mL (≈ 1.62 to 3.25 µM)
MIC ([1]; read-out: MIC E coli AG106 AAC(2′)): > 64 µg/mL
MIC ([1]; read-out: MIC E coli AG163/164 APH(3′)-Ia): > 128 µg/mL
MIC ([1]; read-out: MIC E coli AG166 APH(3′)-IIa): > 128 µg/mL
MIC ([1]; read-out: MIC E coli AG173 AAC(3)-IV): 2 to 4 µg/mL (≈ 3.25 to 6.5 µM)
MIC ([1]; read-out: MIC E coli AG182 AAC(3)-IV APH(3′)-Ia): > 128 µg/mL
MIC ([1]; read-out: MIC E. coli AAC(2′) AG106): > 64 µg/mL
MIC ([1]; read-out: MIC E. coli AAC(2′) pH434): > 64 µg/mL
MIC ([1]; read-out: MIC E. coli AG106 AAC(2′)-Ia): > 64 µg/mL
MIC ([1]; read-out: MIC E. coli pGB2armA armA): 2 µg/mL (≈ 3.25 µM)
MIC ([1]; read-out: MIC E. coli pH434 AAC(2′)-Ib): > 64 µg/mL
MIC ([1]; read-out: MIC pH414 AAC(6′)-I): 2 µg/mL (≈ 3.25 µM)
MIC ([1]; read-out: MIC pH415 AAC(6′)-II): 2 to 4 µg/mL (≈ 3.25 to 6.5 µM)
MIC ([1]; read-out: MIC pH421 APH(3)-I): > 128 µg/mL
MIC ([1]; read-out: MIC pH421 E. coli APH(3′)-I): > 128 µg/mL
MIC ([1]; read-out: MIC pH422 APH(3′)-II): > 128 µg/mL
MIC ([1]; read-out: MIC pH422 E. coli APH(3′)-II): > 128 µg/mL
MIC ([1]; read-out: MIC pH423 APH(3′)-VI): > 128 µg/mL
MIC ([1]; read-out: MIC pH423 E. coli APH(3′)-VI): > 128 µg/mL
MIC ([1]; read-out: MIC pH432 ANT(4′)): 1 to 2 µg/mL (≈ 1.62 to 3.25 µM)
MIC ([2]; ATCC19977, read-out: MIC M. abscessus ATCC 19977 WT): 8 µg/mL (≈ 13 µM)
MIC ([2]; read-out: MIC M. abscessus ATCC): 8 µg/mL (≈ 13 µM)
MIC ([2]; read-out: MIC M. abscessus Clin. Isol.): 32 µg/mL (≈ 52 µM)
MIC ([2]; read-out: MIC M. abscessus clinical isolate): 32 µg/mL (≈ 52 µM)
MIC ([2]; read-out: MIC M. abscessus engineered Δeis2): 4 µg/mL (≈ 6.5 µM)
IC50 [3]: 15 µM
MIC [4]: 2 µg/mL (≈ 3.25 µM)
MIC [5]: 1 µg/mL (≈ 1.62 µM)
MIC50 ([6]; read-out: MIC50 MRSA AG39): > 256 µg/mL
MIC50 ([6]; read-out: MIC50 MRSA AG42): > 256 µg/mL
MIC ([6]; read-out: MIC AG039 MRSA AAC(6′)-I ANT(4′)-I): > 256 µg/mL
MIC ([6]; read-out: MIC AG042 MRSA AAC(6′)-I ANT(4′)-I APH(2′)): > 256 µg/mL
MIC ([6]; read-out: MIC MRSA AG039): > 256 µg/mL
MIC ([6]; read-out: MIC MRSA AG042): > 256 µg/mL
MIC50 ([6]; strain AG38, Table 1 (Example 1), read-out: MIC50 MRSA AG38): 4 µg/mL (≈ 6.5 µM)
MIC50 ([6]; strain AG38, Table 1 (Example 2), read-out: MIC50 MRSA AG38): 4 µg/mL (≈ 6.5 µM)
MIC50 ([6]; strain AG44, Table 1 (Example 1), read-out: MIC50 MRSA AG44): 4 to 8 µg/mL (≈ 6.5 to 13 µM)
MIC50 ([6]; strain AG44, Table 1 (Example 2), read-out: MIC50 MRSA AG44): 4 to 8 µg/mL (≈ 6.5 to 13 µM)
MIC ([6]; clinical isolate AG038, Table 1 (Example 3), read-out: MIC MRSA AG038): 4 µg/mL (≈ 6.5 µM)
MIC ([6]; clinical isolate AG038, read-out: MIC AG038 MRSA): 4 µg/mL (≈ 6.5 µM)
MIC ([6]; clinical isolate AG044, Table 1 (Example 3), read-out: MIC MRSA AG044): 4 to 8 µg/mL (≈ 6.5 to 13 µM)
MIC ([6]; clinical isolate AG044, read-out: MIC AG044 MRSA): 4 to 8 µg/mL (≈ 6.5 to 13 µM)
MIC50 MRSA AG39 ([6]; strain AG39, Table 1 (Example 2)): >256 µg/mL
MIC50 MRSA AG42 ([6]; strain AG42, Table 1 (Example 2)): >256 µg/mL
MIC ([7]; SZ380, read-out: MIC M. smegmatis SZ380 WT, SZ380 WT, Table 5 (Example 3)): 1 µg/mL (≈ 1.62 µM)
MIC ([7]; SZ380, read-out: MIC SZ380 M. smegmatis, strain SZ380 Mycobacterium smegmatis): 1 µg/mL (≈ 1.62 µM)
zone of inhibition at 25 nmol/disc [8]: 9 mm
IC50 ([9]; Mycobacterium smegmatis ribosomes, read-out: IC50 Bacterial): 40 nM
IC50 ([9]; bacterial ribosome, Table 3 (Example 1), read-out: IC50 Bac): 40 nM
IC50 ([9]; bacterial ribosome, Table 3 (Example 2), read-out: IC50 Bac): 40 nM
IC50 ([9]; bacterial ribosome, Table 4 (Example 3), read-out: IC50 Bac): 40 nM
